Test system: declawed cat with maladaptive pain
Assay: Feline Musculoskeletal Pain Index (FMPI) in a declawed cat after perineural RTX nerve blocks
Type: in vivo
Parameters: key to FMPI Q5 (jumping down) / FMPI Q6 (climbing upstairs) / FMPI Q7 (going down stairs) / FMPI Q8 (playing with/chasing toys) / FMPI Q9 (playing and interacting with other pets) / FMPI Q10 (getting up from a resting position) / FMPI Q11 (lying or sitting down) / FMPI Q12 (stretching) / FMPI Q13 (grooming) / FMPI Q14 (interacting with the owner) / FMPI Q15 (being touched or handled) / FMPI Q16 (eating) / FMPI Q17 (using the litter box) / FMPI Q1 (walking) / FMPI Q2 (running) / FMPI Q3 (jumping up) / FMPI Q4 (jumping up to kitchen counter height): 4 = normal; 3 = near normal; 2 = Moderately worse than normal; 1 = Barely, or with great effort; 0 = not at all
Conditions: one cat, 2.5 μg/forelimb perineural
Procedure: Each dose of 5 μg/cat or 2.5 μg/forelimb will be formulated in 1 cc insulin syringes by diluting 0.1 mL: (2.5 μg) of RTX in 0.9 mL sterile saline for injection immediately before use. For treatment, a total of 1.0 mL (2.5 μg) will be injected as nerve blocks, distributed equally (0.25 ml per injection site) over 4 injection sites for each forelimb.
Four point nerve blocks are performed by injection of 0.25 mL RTX each into the 1) superficial branches of the radial nerve, 2) dorsal branch of the ulnar nerve, 3) median nerve and superficial branch of the palmar branch of the ulnar nerve, and 4) deep branch of the palmar branch of the ulnar nerve. The nerve blocks for each forelimb are performed following a published technique for locoregional block of the manus in cats (Enomoto et al. (2016) J. Feline Med. Surg. 18:838-845). To block the superficial branches of the radial nerve (RSbr nn), the limb is positioned with the dorsal aspect facing upwards and the carpus in 180° of extension. A 25 G×⅝-inch needle is inserted subcutaneously (SC) from a point at the center of the limb at the level of the antebrachiocarpal joint. The needle is advanced approximately 10 mm SC at a 10-20° angle to the long axis of the limb with the bevel facing up. Once the tip of the needle is 3-5 mm from the confluence point of the accessory cephalic and cephalic veins, the injection is made (0.25 mL). To block the dorsal branch of the ulnar nerve (UDbr n), the limb is positioned with the lateral aspect facing upwards. A point is located lateral to and at the same level as the accessory carpal bone (ACb), positioned between the ACb and the styloid process of the ulna (SpU). A 25 G×⅝-inch needle is inserted SC distal to proximal, so the tip lies at the midpoint of the groove formed between ACb and the SpU, and then the injection is made (0.25 mL). To block the median nerve (M n) and superficial branch of the palmar branch of the ulnar nerve (UPbrS n), the limb is positioned with the palmar aspect facing upwards. A 25 G×⅝-inch needle is inserted SC at the distal border of the carpal pad and approximately 5 mm lateral to it, perpendicular to the long axis of the metacarpus, with the bevel facing up. The needle is inserted SC until the point is located two-thirds of the distance from the lateral aspect of the limb to the medial aspect. Two-thirds of the injectate volume is deposited at this point and the remaining volume is injected while the needle is withdrawn (0.25 mL). Gentle massage is applied to the injected volume under the skin for 5 seconds. To block the deep branch of the palmar branch of the ulnar nerve (UPbrDp n), the limb is positioned with the palmar aspect facing upwards. A 25 G×⅝-inch needle is inserted almost perpendicular to the ACb in a mediolateral direction such that the needle contacts the medial palmar aspect of the midpoint of the ACb with the bevel facing up. The needle is then redirected dorsally and advanced on the medial side of the ACb 2-3 mm until it penetrates the flexor retinaculum, and then the injection is made (0.25 mL).
The effectiveness of the injection with RTX is assessed at days 3, 7, and 14 using owner videography for qualitative assessment (jumping, manipulation of the limb), and cats will also be evaluated using the Feline Musculoskeletal Pain Index (FMPI) and the Client Specific Outcome Measure (CSOM).
For FMPI, cats are scored for 17 attributes designated Q1-Q17 using a scale of 0-4, where 0=not at all, 1=barely or with great effort, 2=moderately worse than normal, 3=near normal, and 4=normal. The total FMPI score is the sum of scores for each question. Higher totals indicate less impairment with a possible range of (0-68). For analysis, total score or percent possible can be used. […]

C=C(C)[C@]12C[C@@H](C)[C@@]34O[C@](Cc5ccccc5)(O[C@@H]1[C@@H]3C=C(COC(=O)Cc1ccc(O)c(OC)c1)C[C@]1(O)C(=O)C(C)=C[C@@H]41)O2 [RTX, resiniferatoxin]
FMPI % poss (Day 0 (baseline)): 0.69
FMPI Q1 (walking) (Day 0 (baseline)): 2
FMPI Q2 (running) (Day 0 (baseline)): 1
FMPI Q3 (jumping up) (Day 0 (baseline)): 3
FMPI Q4 (jumping up to kitchen counter height) (Day 0 (baseline)): 0
FMPI Q5 (jumping down) (Day 0 (baseline)): 2
FMPI Q6 (climbing upstairs) (Day 0 (baseline)): 4
FMPI Q7 (going down stairs) (Day 0 (baseline)): 4
FMPI Q8 (playing with/chasing toys) (Day 0 (baseline)): 3
FMPI Q9 (playing and interacting with other pets) (Day 0 (baseline)): 2
FMPI Q10 (getting up from a resting position) (Day 0 (baseline)): 4
FMPI Q11 (lying or sitting down) (Day 0 (baseline)): 4
FMPI Q12 (stretching) (Day 0 (baseline)): 3
FMPI Q13 (grooming) (Day 0 (baseline)): 3
FMPI Q14 (interacting with the owner) (Day 0 (baseline)): 3
FMPI Q15 (being touched or handled) (Day 0 (baseline)): 2
FMPI Q16 (eating) (Day 0 (baseline)): 4
FMPI Q17 (using the litter box) (Day 0 (baseline)): 3
FMPI Total score (possible range 0-68) (Day 0 (baseline)): 47
FMPI % poss (Day 3): 0.71
FMPI Q1 (walking) (Day 3): 3
FMPI Q2 (running) (Day 3): 2
FMPI Q3 (jumping up) (Day 3): 3
FMPI Q4 (jumping up to kitchen counter height) (Day 3): 2
FMPI Q5 (jumping down) (Day 3): 3
FMPI Q6 (climbing upstairs) (Day 3): *3
FMPI Q7 (going down stairs) (Day 3): *3
FMPI Q8 (playing with/chasing toys) (Day 3): 3
FMPI Q9 (playing and interacting with other pets) (Day 3): *1
FMPI Q10 (getting up from a resting position) (Day 3): 4
FMPI Q11 (lying or sitting down) (Day 3): 4
FMPI Q12 (stretching) (Day 3): *2
FMPI Q13 (grooming) (Day 3): 3
FMPI Q14 (interacting with the owner) (Day 3): 3
FMPI Q15 (being touched or handled) (Day 3): 2
FMPI Q16 (eating) (Day 3): 4
FMPI Q17 (using the litter box) (Day 3): 3
FMPI Total score (possible range 0-68) (Day 3): 48
FMPI % poss (Day 7): 0.81
FMPI Q1 (walking) (Day 7): 3
FMPI Q2 (running) (Day 7): 3
FMPI Q3 (jumping up) (Day 7): 3
FMPI Q4 (jumping up to kitchen counter height) (Day 7): 3
FMPI Q5 (jumping down) (Day 7): 3
FMPI Q6 (climbing upstairs) (Day 7): 4
FMPI Q7 (going down stairs) (Day 7): 4
FMPI Q8 (playing with/chasing toys) (Day 7): 3
FMPI Q9 (playing and interacting with other pets) (Day 7): 2
FMPI Q10 (getting up from a resting position) (Day 7): 4
FMPI Q11 (lying or sitting down) (Day 7): 4
FMPI Q12 (stretching) (Day 7): 3
FMPI Q13 (grooming) (Day 7): 3
FMPI Q14 (interacting with the owner) (Day 7): 3
FMPI Q15 (being touched or handled) (Day 7): 3
FMPI Q16 (eating) (Day 7): 4
FMPI Q17 (using the litter box) (Day 7): 3
FMPI Total score (possible range 0-68) (Day 7): 55
FMPI % poss (Day 14): 0.84
FMPI Q1 (walking) (Day 14): 3
FMPI Q2 (running) (Day 14): 3
FMPI Q3 (jumping up) (Day 14): 4
FMPI Q4 (jumping up to kitchen counter height) (Day 14): 3
FMPI Q5 (jumping down) (Day 14): 3
FMPI Q6 (climbing upstairs) (Day 14): 4
FMPI Q7 (going down stairs) (Day 14): 4
FMPI Q8 (playing with/chasing toys) (Day 14): 3
FMPI Q9 (playing and interacting with other pets) (Day 14): 3
FMPI Q10 (getting up from a resting position) (Day 14): 4
FMPI Q11 (lying or sitting down) (Day 14): 4
FMPI Q12 (stretching) (Day 14): 3
FMPI Q13 (grooming) (Day 14): 3
FMPI Q14 (interacting with the owner) (Day 14): 3
FMPI Q15 (being touched or handled) (Day 14): 3
FMPI Q16 (eating) (Day 14): 4
FMPI Q17 (using the litter box) (Day 14): 3
FMPI Total score (possible range 0-68) (Day 14): 57
FMPI % poss (Screening (baseline)): 0.69
FMPI Q1 (walking) (Screening (baseline)): 2
FMPI Q2 (running) (Screening (baseline)): 1
FMPI Q3 (jumping up) (Screening (baseline)): 3
FMPI Q4 (jumping up to kitchen counter height) (Screening (baseline)): 0
FMPI Q5 (jumping down) (Screening (baseline)): 2
FMPI Q6 (climbing upstairs) (Screening (baseline)): 4
FMPI Q7 (going down stairs) (Screening (baseline)): 4
FMPI Q8 (playing with/chasing toys) (Screening (baseline)): 3
FMPI Q9 (playing and interacting with other pets) (Screening (baseline)): 2
FMPI Q10 (getting up from a resting position) (Screening (baseline)): 4
FMPI Q11 (lying or sitting down) (Screening (baseline)): 4
FMPI Q12 (stretching) (Screening (baseline)): 3
FMPI Q13 (grooming) (Screening (baseline)): 3
FMPI Q14 (interacting with the owner) (Screening (baseline)): 3
FMPI Q15 (being touched or handled) (Screening (baseline)): 2
FMPI Q16 (eating) (Screening (baseline)): 4
FMPI Q17 (using the litter box) (Screening (baseline)): 3
FMPI Total score (possible range 0-68) (Screening (baseline)): 47
